Measured values from patent publication US20240335404A1, “SUBSTITUTED ESTERS CONTAINING POLYOLS AND SACCHARIDES FOR TREATING HEPATOTOXICITY AND FATTY LIVER DISEASES” (SINEW PHARMA INC., priority 2015, published 2024).

Assays:
[1] = test system: Liver Injuries Induced by APAP; experiment: Liver injuries induced by APAP in rats (GSP, AST/ALT, HAI, survival); type: in vivo, SD (Sprague-Dawley) rats; conditions: APAP 2,000 mg/kg; for histological analysis of liver tissue, H&E: FIG. 4
Protocol: Male SD (Sprague-Dawley) rats weighing 175-280 g were purchased from the National Laboratory Animal Center (NLAC), Taiwan. The study was conducted in accordance with the Guidelines for Conducting Animal Studies of the National Health Research Institute and all rats were placed in the air/humidity controlled environment under the 12 hours of day/12 hours of night cycle and with unlimited water and food supply. During the course of the study, the weights of rats were monitored continuously with normal water supply.
In the normal control (Group 1), animals were not fed with APAP. In the control group of APAP-induced liver injuries (Group 2), animals were fed with a single dose of APAP in the amount of 2,000 mg per kilogram of body weight to induce hepatotoxicity. In the positive control group of treatment with NAC (Group 3), animals were fed with a single dose of APAP in the amount of 2,000 mg per kilogram of body weight to induce hepatotoxicity, and 4 hours later, a 24-hour treatment period by tube feeding was started, including first administration of 140 mg of NAC (per kilogram of body weight) and later administration of 70 mg of NAC (per kilogram of body weight) every 4 hours for five times. In the experimental group (Group 4), animals were fed with a single dose of APAP in the amount of 2,000 mg per kilogram of body weight to induce hepatotoxicity, and 4 hours later, a 24-hour treatment period by tube feeding was started, including six dosing with the ingredients of the present invention every 4 hours, as follows: • (a) (Group 4.1): administration of mannitol at a dose less than or equivalent to 100 mg per person every 4 hours for 24 hours, • (b) (Group 4.2): administration of double dose of mannitol as in Group 4.1 every 4 hours for 24 hours, • (c) (Group 4.3): administration of sucralose at a dose less than or equivalent to 100 mg per person every 4 hours for 24 hours, • (d) (Group 4.4): administration of double dose of sucralose of Group 4.3 every 4 hours for 24 hours, • (e) (Group 4.5): administration of a combination of 0.5 times the dose of mannitol as in Group 4.1 and 0.5 times the dose of sucralose as in Group 4.3 per kilogram of body weight every 4 hours for 24 hours, • (f) (Group 4.6): administration of a combination of the dose of mannitol as in Group 4.1 and the dose of sucralose as in Group 4.3 every 4 hours for 24 hours, • (g) (Group 4.7): administration of a combination of 1.5 times the dose of mannitol as in Group 4.1 and 1.5 times the dose of sucralose as in Group 4.3 every 4 hours for 24 hours, • (h) (Group 4.8): administration of a combination of double dose of mannitol as in Group 4.1 and double dose of sucralose as in Group 4.3 every 4 hours for 24 hours, and • (i) (Group 4.9): first administration of 140 mg of NAC per kilogram of body weight and later administration of a combination of 70 mg of NAC plus double dose of mannitol as in Group 4.1 and double dose of sucralose as in Group 4.3 every 4 hours for five times.
After the 24-hour treatment period, blood was collected from the tail artery of the rats for AST/SLT assays. Subsequently, rats were subjected to GSP tests. Finally, rats were sacrificed and histological analysis was performed.
After completion of the treatments, rats were sacrificed under ether anesthesia, and blood was collected from the tail artery of the rats and placed in a test tube containing EDTA. The plasma was centrifuged at 13,000 at 4° C. for 15 minutes and the isolated plasma was transferred to Eppendorf tubes in aliquots and stored at −80° C.
Liver damage is quantified by measuring plasma AST and ALT activity. AST and ALT are common indicators of hepatotoxicity and are measured by using the Synchron LXi 725 system (Beckman Instruments, U.S.).
Following scarification of the rats, histological analysis was performed.

CYP2E1 = CYP2E1 (Homo sapiens, UniProt P05181); experiment: CYP2E1 inhibitory activity assay in human liver microsomes (CZX to 6-OH-CZX)
Protocol: After addition of the test sample, the amount of CYP450 isozyme metabolite standard 6-OH-CZX (6-Hydroxy-Chlorzoxazone) is specific used for calculation of the CYP450 isozyme (CYP2E1) inhibition ratio of the test sample by using the amount of 6-OH-CZX of the control group as the baseline.
All samples were tested in triplicate. To determine the percentage inhibition, each test compound was dissolved in 1, 2, 4 μg/mL to three different concentrations. The CYP2E1 activity levels in the presence of the test compounds were compared with the control incubations. The 500-μL reaction mixture, containing 0.5 mg of microsomal protein, was incubated with 320 μM CZX in the presence of 5 mM MgCl2 and 1 mM NADPH in 50 mM phosphate buffer with pH 7.4 at 37° C. for 30 min. The reaction was terminated by ice-cold acetonitrile, and then 4-hydroxyl tolbutamide was added as an internal standard. The organic phase was evaporated to dryness and reconstituted into the mobile phase (methanol:water=1:1) prior to liquid chromatography-tandem mass spectrometry (LC-MS/MS) analysis. An API 3000 triple-quadrupole mass spectrometer equipped with an ion-spray (ESI) source was used to determine 6-OH-CZX in the human liver microsomes. The ESI interface was used in the positive-ion mode. The 6-OH-CZX was monitored at a transition of m/z 284.5→185.9.
The CYP450 isozyme activity levels in the presence of the test compounds were compared with the control incubations.

[2] = dose less than or equivalent to 100 mg per person (mannitol, sucralose: × 6)
[3] = dose less than or equivalent to 100 mg per person (mannitol, sucralose: × 6), Day 14
[4] = double dose of Group 4.1 / Group 4.3, × 6
[5] = double dose of Group 4.1 / Group 4.3, × 6, Day 14

CYP2E1, sequence (P05181 whole entry): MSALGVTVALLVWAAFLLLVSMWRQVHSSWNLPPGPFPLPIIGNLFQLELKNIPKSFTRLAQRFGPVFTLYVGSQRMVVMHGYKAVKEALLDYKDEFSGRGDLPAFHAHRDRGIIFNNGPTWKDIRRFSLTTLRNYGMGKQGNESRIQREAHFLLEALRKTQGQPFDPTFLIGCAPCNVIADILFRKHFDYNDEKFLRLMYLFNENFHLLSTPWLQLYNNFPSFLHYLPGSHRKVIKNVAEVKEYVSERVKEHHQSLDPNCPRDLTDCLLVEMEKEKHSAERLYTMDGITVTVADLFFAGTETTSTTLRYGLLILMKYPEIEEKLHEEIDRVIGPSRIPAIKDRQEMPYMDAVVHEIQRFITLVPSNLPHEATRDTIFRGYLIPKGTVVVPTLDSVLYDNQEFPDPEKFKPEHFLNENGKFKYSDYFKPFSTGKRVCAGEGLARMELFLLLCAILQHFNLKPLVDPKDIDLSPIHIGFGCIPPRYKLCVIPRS

OC[C@@H](O)[C@@H](O)[C@H](O)[C@H](O)CO [Mannitol]
effect on APAP-induced liver injuries and survival rate [1]: liver injuries and survival rate can be improved | histological analysis of liver tissue, H&E [1]: hepatocytes are relatively intact with visible nucleus and less vacuolization | ALT [1, 2]: 209 ± 16 IU/L | AST [1, 2]: 455 ± 78 IU/L | GSP [1, 2]: 565 ± 177 mg/L | Total HAI score [1, 2]: 4.0 ± 0.0 | Survival (Day 14, n/n) [1, 3]: 1/3 | ALT [1, 4]: 166 ± 15 IU/L | AST [1, 4]: 300 ± 40 IU/L | GSP [1, 4]: 354 ± 56 mg/L | Total HAI score [1, 4]: 4.0 ± 1.0 | Survival (Day 14, n/n) [1, 5]: 3/3 | P450 2E1 inhibitor activity (CYP2E1): effective as P450 2E1 inhibitors | CYP 2E1 inhibition ratio (%) (CYP2E1; 1 μg/mL): 30.1 ± 2.4% | CYP 2E1 inhibition ratio (%) (CYP2E1; 2 μg/mL): 34.1 ± 4.1% | CYP 2E1 inhibition ratio (%) (CYP2E1; 4 μg/mL): 40.3 ± 1.6%

OC[C@H]1O[C@H](O[C@]2(CCl)O[C@H](CCl)[C@@H](O)[C@@H]2O)[C@H](O)[C@@H](O)[C@H]1Cl [Sucralose]
effect on APAP-induced liver injuries and survival rate [1]: liver injuries and survival rate can be improved | histological analysis of liver tissue, H&E [1]: hepatocytes are relatively intact with visible nucleus and less vacuolization | ALT [1, 2]: 154 ± 49 IU/L | AST [1, 2]: 331 ± 41 IU/L | GSP [1, 2]: 332 ± 42 mg/L | Total HAI score [1, 2]: 4.0 ± 1.0 | Survival (Day 14, n/n) [1, 3]: 3/3 | ALT [1, 4]: 136 ± 48 IU/L | AST [1, 4]: 277 ± 78 IU/L | GSP [1, 4]: 309 ± 54 mg/L | Total HAI score [1, 4]: 3.0 ± 1.0 | Survival (Day 14, n/n) [1, 5]: 3/3 | P450 2E1 inhibitor activity (CYP2E1): effective as P450 2E1 inhibitors | CYP 2E1 inhibition ratio (%) (CYP2E1; 1 μg/mL): 25.1 ± 1.4% | CYP 2E1 inhibition ratio (%) (CYP2E1; 2 μg/mL): 30.2 ± 2.8% | CYP 2E1 inhibition ratio (%) (CYP2E1; 4 μg/mL): 32.9 ± 4.6%
